From patent US20170016915A1, “SCREENING TARGETS AND COMPOSITIONS AND METHODS FOR TREATMENT OF CILIOPATHY DISORDERS” (Duke University, priority 2014, published 2017)

What was measured:
[1] = system: GLI2FL, GLI3FL, SUFU and GLI3R in T8-derived Ofd1^KO neurons; settings: 10 μM SFN
Procedure: (§1) Transfected cells and mouse tissues were lysed in modified RIPA buffer [150 mM sodium chloride, 50 mM Tris-HCl, pH7.4, 1% nonidet P-40, 0.1% sodium deoxycholate, 1 mM EDTA] with 1× proteasome inhibitor (Roche) and centrifuged at 4° C. for 15 minutes. Protein concentration was measured by Lowry assay using the DC Protein Assay Kit (Bio-Rad) on a DU 530 Life Science UV/Vis Spectrophotometer (Beckman Coulter). Total protein in each sample was separated by SDS-PAGE on 4% to 15% Mini-PROTEAN TGX Precast Gel (Bio-Rad) with a Spectra Multicolor Broad Range Protein Ladder (Fermentas) and transferred to an Immun-Blot PVDF Membrane (Bio-Rad). […] Densitometric analysis was performed with Image Lab (Bio-Rad), Quantity One (Bio-Rad), or ImageJ 1.44p (NIH) software.
(§2) HEK-293 or HEK-293-FT cells and human dermal fibroblasts were grown in DMEM (Invitrogen) containing 10% FBS (Invitrogen) and 2 mM L-glutamine (Invitrogen), hTERT-RPE1 cells in DMEM and Ham's F-12 Nutrient 1:1 mixture (DMEM/F-12; Invitrogen) with 10% FBS and 2 mM L-glutamine.

IκBβ = settings: BBS4-, BBS1-, or OFD-suppressant cells
Procedure: as §1, with “software. […]” for “software.”

β-catenin = settings: cells depleted of BBS4, relative to vehicle-treated cells; 10 μM SFN
Procedure: as §1, with “software. […]” for “software.”

[2] = system: bbs4, bbs1 and ofd1 morphant zebrafish embryos; assay: Convergent extension (CE) and somite defects in morphant zebrafish embryos, coinjection; type: in vivo; settings: for rescue of defective CE phenotypes, somitic defects, and persistent her4 expression: coinjection
Procedure: Morpholinos against bbs1 ([NT] ID NO: 13), bbs4 ([NT] ID NO: 14), and ofd1 ([NT] ID NO: 15) were purchased from Gene Tools, LLC. Human RPN10, RPN13, and RPT6 mRNA were in vitro transcribed with a mMESSAGE mMACHINE SP6 Kit (Ambion). SFN was dissolved in DMSO (Sigma-Aldrich) at a stock concentration of 1 M and further diluted in water to 10 mM. The morpholino and mRNA or SFN were mixed, and a volume of 0.5 nl was microinjected.

[3] = system: her4 expression (Notch target) in bbs4 morphant zebrafish embryos; assay: Whole-mount RNA in situ hybridization of her4 in morphant zebrafish; type: in vivo; settings: bbs4 morphants, coinjection, 4.5 dpf
Procedure: Morpholinos against bbs1 ([NT] ID NO: 13), bbs4 ([NT] ID NO: 14), and ofd1 ([NT] ID NO: 15) were purchased from Gene Tools, LLC. Human RPN10, RPN13, and RPT6 mRNA were in vitro transcribed with a mMESSAGE mMACHINE SP6 Kit (Ambion). SFN was dissolved in DMSO (Sigma-Aldrich) at a stock concentration of 1 M and further diluted in water to 10 mM. The morpholino and mRNA or SFN were mixed, and a volume of 0.5 nl was microinjected. Zebrafish embryos were fixed overnight in 4% PFA at 4° C. Residual pigment was removed by bleaching with 3% H2O2/0.5% KOH.

NF-κB signaling = settings: TNF-α stimulated cells with pSuperBBS4, pSuperBBS1 or pSuperOFD1; SFN 6 hours
Procedure: as §2

PSMB5, PSMB6, and PSMB7 = settings: upon treatment with sulforaphane (ref. 36); cited from earlier work

C[S@@+]([O-])CCCCN=C=S [SFN, 1-isothiocyanato-4(R)-methylsulfinylbutane]
GLI3R protein levels [1]: reduced | accumulation of GLI3FL, GLI2FL, and SUFU [1]: ameliorated | accumulation of GFP-tagged IκBβ (IκBβ): ameliorated | β-catenin protein levels (β-catenin): reduction | rescue of defective CE phenotypes, somitic defects, and persistent her4 expression ([2]; bbs1 morphants): robust rescue | bbs4 morphants with CE and somitic defects ([2]; coinjection with bbs4 morpholino, blind scoring at 9±1 ss): significant reduction | rescue of defective CE phenotypes, somitic defects, and persistent her4 expression ([2]; ofd1 morphants): robust rescue | phenotype after injection of the substance alone ([2]; zebrafish embryos, no morpholino): did not give rise to any obvious phenotype | ectopic expression of her4 in neural structures [3]: ameliorated | NF-κB activity (3X-κB-L luciferase reporter) (NF-κB signaling): restored | expression levels of PSMB5, PSMB6, and PSMB7 and corresponding peptidase activities (PSMB5, PSMB6, and PSMB7): increase
